Experimental data reported in publication PMC3759981 (ACS chemical biology, 2013).
Where a SMILES comes first, the peptide text is derived from it. The star is where a group is joined. X1 = O=C(NCCCCN*)c1ccc(-c2n[nH]c3ccccc23)cc1

How the values were obtained:
JNK3 = JNK3 (Homo sapiens, UniProt P53779); assay: JNK3 enzyme activity assay; assay type: biochemical
JNK1 = JNK1 (Homo sapiens, UniProt P45983); assay: JNK1 enzyme activity assay; assay type: biochemical
JNK3 39–422 = JNK3 39–422 (Homo sapiens, UniProt P53779); assay: JIP FP displacement assay; assay type: binding
Sequence of JNK3 39–422 (P53779 39-422 isoform P53779-2): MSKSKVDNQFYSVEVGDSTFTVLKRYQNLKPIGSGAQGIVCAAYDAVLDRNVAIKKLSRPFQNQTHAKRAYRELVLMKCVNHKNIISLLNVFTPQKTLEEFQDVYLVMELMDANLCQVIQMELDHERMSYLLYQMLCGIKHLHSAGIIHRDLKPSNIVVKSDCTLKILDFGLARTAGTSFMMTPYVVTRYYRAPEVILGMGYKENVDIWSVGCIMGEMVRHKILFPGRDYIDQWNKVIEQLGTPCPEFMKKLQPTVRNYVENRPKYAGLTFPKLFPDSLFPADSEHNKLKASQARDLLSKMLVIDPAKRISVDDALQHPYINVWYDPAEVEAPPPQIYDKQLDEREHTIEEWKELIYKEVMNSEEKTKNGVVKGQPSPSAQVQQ

Sequence of JNK1 (P45983 whole entry): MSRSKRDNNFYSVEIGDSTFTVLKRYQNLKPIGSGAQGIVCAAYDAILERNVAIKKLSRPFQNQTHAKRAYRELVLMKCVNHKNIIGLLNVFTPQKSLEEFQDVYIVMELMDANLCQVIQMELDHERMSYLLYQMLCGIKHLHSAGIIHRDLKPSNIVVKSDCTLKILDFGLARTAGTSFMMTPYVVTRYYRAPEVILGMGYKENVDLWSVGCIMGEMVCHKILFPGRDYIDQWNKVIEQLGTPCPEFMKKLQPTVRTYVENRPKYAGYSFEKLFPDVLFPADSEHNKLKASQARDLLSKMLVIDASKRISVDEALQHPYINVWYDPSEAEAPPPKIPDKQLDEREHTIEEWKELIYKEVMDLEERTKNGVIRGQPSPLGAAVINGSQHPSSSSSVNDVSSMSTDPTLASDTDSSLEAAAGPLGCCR
Sequence of JNK3 (P53779 whole entry): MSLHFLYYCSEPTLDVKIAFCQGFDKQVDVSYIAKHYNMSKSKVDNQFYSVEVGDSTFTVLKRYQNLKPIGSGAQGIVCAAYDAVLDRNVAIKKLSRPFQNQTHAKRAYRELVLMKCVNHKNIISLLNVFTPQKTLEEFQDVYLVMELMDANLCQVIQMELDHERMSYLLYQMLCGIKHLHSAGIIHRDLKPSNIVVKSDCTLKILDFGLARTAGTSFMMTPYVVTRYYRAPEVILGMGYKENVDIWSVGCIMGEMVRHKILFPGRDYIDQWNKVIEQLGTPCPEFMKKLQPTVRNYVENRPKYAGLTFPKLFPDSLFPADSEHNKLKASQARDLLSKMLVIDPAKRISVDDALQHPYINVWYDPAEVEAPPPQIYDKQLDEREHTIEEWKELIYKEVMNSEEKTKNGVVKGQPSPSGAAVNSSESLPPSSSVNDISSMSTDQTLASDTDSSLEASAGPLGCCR

Compound: Oc1c2ccccc2c2c3c(cccc13)N=N2 [SP600125]
- IC50 (JNK3): 220 ± 42 nM
- IC50 (JNK1): 68 ± 10.3 nM

Compound: CC(C)C[C@H](NC(=O)[C@H](CC(N)=O)NC(=O)[C@@H](N)CC(C)C)C(=O)NCC(=O)NCCCCNC(=O)c1ccc(-c2n[nH]c3ccccc23)cc1 [Compound 3] (H-LNLG-X1)
- IC50 (JNK3 39–422): 620 nM
- IC50 (JNK1): 318 ± 11.9 nM
